Here are results for twelve compounds from ChEMBL document CHEMBL1909046, “DrugMatrix in vitro pharmacology data”.

Assay [1] has as its target Platelet-activating factor receptor (Homo sapiens, UniProt P25105). The format is tissue-based. Also: in other assays of this panel Not Active means under 50% inhibition at 10 µM.
The nature of assay [2]: DRUGMATRIX: GABAA, Flunitrazepam, Central radioligand binding (ligand: [3H] Flunitrazepam). The format is cell membranes, Rattus norvegicus, Wistar, Brain, Membrane. As to conditions: Not Active = under 50% inhibition at 10 µM.
Assay [3] is described as follows: DRUGMATRIX: Glutamate, NMDA, Phencyclidine radioligand binding (ligand: [3H] TCP). The class given is cell membranes, Rattus norvegicus, Wistar, Cerebral cortex, Membrane. As to conditions: Not Active = under 50% inhibition at 10 µM.
Assay [4] deals with T1, 3-hydroxy-3-methylglutaryl-coenzyme A reductase (Homo sapiens, UniProt P04035).
T1 sequence (P04035 whole entry): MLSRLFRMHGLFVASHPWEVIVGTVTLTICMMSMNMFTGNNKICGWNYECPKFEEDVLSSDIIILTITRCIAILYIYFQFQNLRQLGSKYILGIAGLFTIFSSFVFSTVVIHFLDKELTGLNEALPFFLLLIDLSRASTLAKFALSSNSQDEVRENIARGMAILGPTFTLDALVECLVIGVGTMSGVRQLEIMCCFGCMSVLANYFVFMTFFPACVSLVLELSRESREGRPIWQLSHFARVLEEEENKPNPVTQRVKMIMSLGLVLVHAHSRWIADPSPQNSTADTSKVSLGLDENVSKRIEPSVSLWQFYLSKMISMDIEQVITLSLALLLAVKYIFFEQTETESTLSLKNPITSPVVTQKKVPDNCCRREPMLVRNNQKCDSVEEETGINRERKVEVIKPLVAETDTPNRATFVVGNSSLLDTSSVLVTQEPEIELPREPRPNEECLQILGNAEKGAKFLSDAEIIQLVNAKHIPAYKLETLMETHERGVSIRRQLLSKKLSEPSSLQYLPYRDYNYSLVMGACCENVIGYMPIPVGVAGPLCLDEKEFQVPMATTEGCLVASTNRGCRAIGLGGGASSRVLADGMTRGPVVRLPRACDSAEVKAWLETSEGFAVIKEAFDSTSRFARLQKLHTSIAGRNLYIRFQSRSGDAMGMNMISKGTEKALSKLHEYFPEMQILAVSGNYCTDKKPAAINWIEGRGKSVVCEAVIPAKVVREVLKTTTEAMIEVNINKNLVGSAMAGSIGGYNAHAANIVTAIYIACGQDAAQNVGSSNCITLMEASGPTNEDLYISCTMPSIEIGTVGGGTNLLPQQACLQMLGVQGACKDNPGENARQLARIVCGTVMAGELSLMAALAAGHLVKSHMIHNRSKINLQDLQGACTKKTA
On the set-up: species or system Escherichia coli.

Assay [5] deals with T2, Nitric oxide synthase, inducible (Mus musculus, UniProt P29477).
T2 sequence (P29477 whole entry): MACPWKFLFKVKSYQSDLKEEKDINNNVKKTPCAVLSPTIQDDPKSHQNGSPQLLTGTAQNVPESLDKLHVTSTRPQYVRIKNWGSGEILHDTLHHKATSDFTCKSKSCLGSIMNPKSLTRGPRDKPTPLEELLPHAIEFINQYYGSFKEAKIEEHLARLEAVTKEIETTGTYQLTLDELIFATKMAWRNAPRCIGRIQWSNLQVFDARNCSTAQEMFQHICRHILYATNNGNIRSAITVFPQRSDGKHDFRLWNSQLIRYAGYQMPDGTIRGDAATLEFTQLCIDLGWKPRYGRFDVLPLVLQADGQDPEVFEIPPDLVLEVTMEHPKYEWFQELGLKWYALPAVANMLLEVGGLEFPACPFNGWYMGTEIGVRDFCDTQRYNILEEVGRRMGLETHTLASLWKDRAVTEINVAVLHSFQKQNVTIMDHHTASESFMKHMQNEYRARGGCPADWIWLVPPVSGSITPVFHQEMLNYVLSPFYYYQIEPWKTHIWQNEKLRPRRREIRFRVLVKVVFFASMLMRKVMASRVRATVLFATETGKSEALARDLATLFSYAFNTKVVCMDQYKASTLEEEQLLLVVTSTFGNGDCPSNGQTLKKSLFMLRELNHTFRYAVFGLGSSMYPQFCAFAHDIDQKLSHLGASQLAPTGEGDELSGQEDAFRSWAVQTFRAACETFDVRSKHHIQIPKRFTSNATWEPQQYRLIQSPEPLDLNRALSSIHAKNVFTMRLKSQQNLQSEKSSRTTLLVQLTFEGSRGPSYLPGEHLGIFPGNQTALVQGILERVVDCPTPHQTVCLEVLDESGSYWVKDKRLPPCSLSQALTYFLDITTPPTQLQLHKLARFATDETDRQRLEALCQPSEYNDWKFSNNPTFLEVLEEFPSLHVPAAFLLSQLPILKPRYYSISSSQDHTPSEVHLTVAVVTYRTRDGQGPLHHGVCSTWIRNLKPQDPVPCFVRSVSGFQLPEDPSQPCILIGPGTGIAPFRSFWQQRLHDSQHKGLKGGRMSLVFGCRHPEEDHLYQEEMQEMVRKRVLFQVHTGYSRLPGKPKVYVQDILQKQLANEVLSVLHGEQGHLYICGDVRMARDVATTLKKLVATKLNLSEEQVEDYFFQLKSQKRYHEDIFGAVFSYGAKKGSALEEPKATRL
More on the design: species or system Escherichia coli.

For assay [6], the target named is T3, C-X-C chemokine receptor type 1 (Homo sapiens, UniProt P25024). Also: in other assays of this panel Not Active means under 50% inhibition at 10 µM.
T3 sequence (P25024 whole entry): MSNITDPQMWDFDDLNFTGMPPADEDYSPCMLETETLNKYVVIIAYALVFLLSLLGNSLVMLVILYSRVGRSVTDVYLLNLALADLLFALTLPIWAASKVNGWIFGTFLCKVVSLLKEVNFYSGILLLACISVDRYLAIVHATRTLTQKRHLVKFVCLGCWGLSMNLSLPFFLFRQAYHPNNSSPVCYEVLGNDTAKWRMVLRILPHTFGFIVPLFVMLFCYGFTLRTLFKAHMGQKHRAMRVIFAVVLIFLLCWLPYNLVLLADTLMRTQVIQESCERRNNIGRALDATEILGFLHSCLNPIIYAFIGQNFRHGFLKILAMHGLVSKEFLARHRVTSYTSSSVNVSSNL

The nature of assay [7]: DRUGMATRIX: Nicotinic Acetylcholine radioligand binding (ligand: [125I] Epibatidine). The class given is cell membranes, Membrane. The conditions noted are these: imr-32; Not Active = under 50% inhibition at 10 µM.

pIC50: −log10 of the molar value.

Platelet-activating factor receptor, sequence (P25105 whole entry): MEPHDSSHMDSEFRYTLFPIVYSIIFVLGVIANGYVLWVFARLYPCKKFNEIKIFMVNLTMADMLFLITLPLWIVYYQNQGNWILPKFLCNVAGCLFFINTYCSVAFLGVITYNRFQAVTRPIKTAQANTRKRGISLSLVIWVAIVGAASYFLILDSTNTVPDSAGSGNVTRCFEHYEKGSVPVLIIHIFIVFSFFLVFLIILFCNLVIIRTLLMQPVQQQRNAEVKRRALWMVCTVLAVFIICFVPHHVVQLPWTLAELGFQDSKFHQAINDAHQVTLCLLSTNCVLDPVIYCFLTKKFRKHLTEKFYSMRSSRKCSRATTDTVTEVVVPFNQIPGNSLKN

Regarding `O=[As][O-].[Na+]` [SODIUM ARSENITE], the IC50 result in assay [1], in assay [2], in assay [3], in assay [4], in assay [5] and in assay [6] was “Not Active” in each case. Further, the IC50 entry in assay [7] is given as “Not Active”. Besides, the Ki entry in assay [2], in assay [3] and in assay [7] was “Not Active” in each case.

Take `C1CCN2C[C@@H]3C[C@@H](CN4CCCC[C@@H]34)[C@H]2C1` [SPARTEINE]: the IC50 result in assay [1], in assay [2], in assay [3], in assay [4], in assay [5] and in assay [6] was “Not Active” each time. Further, the IC50 entry in assay [7] is recorded as “Not Active”. Further, the Ki result in assay [2], in assay [3] and in assay [7] was “Not Active” throughout.

Turning to `C[C@]12CCC(=O)C[C@@H]1CC[C@@H]1[C@@H]2CC[C@]2(C)[C@@H](O)CC[C@@H]12` [STANOLONE], the IC50 result in assay [1], in assay [2], in assay [3], in assay [4], in assay [5] and in assay [6] was “Not Active” throughout. In assay [7], the IC50 entry is listed as “Not Active”. For the same compound, the Ki result in assay [2], in assay [3] and in assay [7] was “Not Active” throughout.

For the compound `Cc1cn([C@H]2C=C[C@@H](CO)O2)c(=O)[nH]c1=O` [STAVUDINE], the IC50 result in assay [1], in assay [2], in assay [3], in assay [4], in assay [5] and in assay [6] was “Not Active” in each case. Moreover, the IC50 result in assay [7] was “Not Active”. In addition, the Ki entry in assay [2], in assay [3] and in assay [7] was “Not Active” in each case.

Turning to `CC1(C)[C@H](C(=O)O)N2C(=O)C[C@H]2S1(=O)=O` [SULBACTAM], the IC50 result in assay [1], in assay [2], in assay [3], in assay [4], in assay [5] and in assay [6] was “Not Active” each time. Besides, in assay [7], the IC50 entry is listed as “Not Active”. Moreover, the Ki result in assay [2], in assay [3] and in assay [7] was “Not Active” each time.

As to `Cc1ccnc(NS(=O)(=O)c2ccc(N)cc2)n1` [SULFAMERAZINE], the IC50 result in assay [1], in assay [2], in assay [3], in assay [4], in assay [5] and in assay [6] was “Not Active” each time. Also, the IC50 entry in assay [7] was “Not Active”. The Ki result in assay [2], in assay [3] and in assay [7] was “Not Active” each time.

In the case of `Cc1nnc(NS(=O)(=O)c2ccc(N)cc2)s1` [SULFAMETHIZOLE], the IC50 entry in assay [1], in assay [2], in assay [3], in assay [4], in assay [5] and in assay [6] was “Not Active” in each case. Besides, the IC50 result in assay [7] was “Not Active”. Also, the Ki entry in assay [2], in assay [3] and in assay [7] was “Not Active” in each case.

In the case of `O=C(O)c1cc(/N=N/c2ccc(S(=O)(=O)Nc3ccccn3)cc2)ccc1O` [SULFASALAZINE], the IC50 result in assay [1], in assay [2], in assay [3], in assay [4], in assay [5] and in assay [6] was “Not Active” each time. Further, in assay [7], the IC50 result was “Not Active”. In addition, the Ki result in assay [2], in assay [3] and in assay [7] was “Not Active” throughout.

Take `CCN1CCCC1CNC(=O)c1cc(S(N)(=O)=O)ccc1OC` (stereo not given) [SULPIRIDE]: the IC50 entry in assay [1], in assay [2], in assay [3], in assay [4], in assay [5] and in assay [6] was “Not Active” throughout. Further, the IC50 result in assay [7] is “Not Active”. The Ki result in assay [2], in assay [3] and in assay [7] was “Not Active” in each case.

As for `O=C(OC[C@H]1O[C@@H](OC(=O)c2cc(O)c(O)c(OC(=O)c3cc(O)c(O)c(O)c3)c2)[C@H](OC(=O)c2cc(O)c(O)c(OC(=O)c3cc(O)c(O)c(O)c3)c2)[C@@H](OC(=O)c2cc(O)c(O)c(OC(=O)c3cc(O)c(O)c(O)c3)c2)[C@@H]1OC(=O)c1cc(O)c(O)c(OC(=O)c2cc(O)c(O)c(O)c2)c1)c1cc(O)c(O)c(OC(=O)c2cc(O)c(O)c(O)c2)c1` [TANNIC ACID], the IC50 entry in assay [1], in assay [2], in assay [3], in assay [5], in assay [6] and in assay [7] was “Not Active” throughout. Besides, the Ki entry in assay [2], in assay [3] and in assay [7] was “Not Active” throughout. For the same compound, the pIC50 – broadly, the negative decadic logarithm of the IC50, by convention in mol/L – in assay [4] (read-out: IC50) was 5.50.

On to `C#C[C@]1(O)CC[C@H]2[C@@H]3[C@H](C)CC4=C(CCC(=O)C4)[C@H]3CC[C@@]21C` [TIBOLONE], for which the IC50 entry in assay [1], in assay [2], in assay [3], in assay [4], in assay [5] and in assay [6] was “Not Active” throughout. Besides, the IC50 entry in assay [7] was “Not Active”. Moreover, the Ki result in assay [2], in assay [3] and in assay [7] was “Not Active” each time.

With `Cc1cccc(C)c1NC(=O)C(C)N` (stereo not given) [TOCAINIDE], the IC50 result in assay [1], in assay [2], in assay [3], in assay [4], in assay [5] and in assay [6] was “Not Active” throughout. In addition, the IC50 result in assay [7] is reported as “Not Active”. Moreover, the Ki result in assay [2], in assay [3] and in assay [7] was “Not Active” throughout.
